#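 Values below derive from 48-hour exposures of cells grown in 96-well plates, with endpoints linearly interpolated between the two concentrations bracketing the appropriate inhibition level. At the TGI there is no net growth.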
# Columns and labels:
# Assay in all cases: DTP human tumour cell line panel, 48 h
# UO-31 renal = tested on: UO-31 renal
# NCI/ADR-RES ovarian = tested on: NCI/ADR-RES ovarian
# OVCAR-3 ovarian = tested on: OVCAR-3 ovarian
# SK-OV-3 ovarian = tested on: SK-OV-3 ovarian
# NCI-H23 lung = tested on: NCI-H23 lung
# SF-295 CNS = tested on: SF-295 CNS
# COLO 205 colon = tested on: COLO 205 colon
# 786-0 renal = tested on: 786-0 renal
# MDA-MB-231 breast = tested on: MDA-MB-231 breast
# MOLT-4 leukemia = tested on: MOLT-4 leukemia
# SK-MEL-5 melanoma = tested on: SK-MEL-5 melanoma
# SNB-75 CNS = tested on: SNB-75 CNS
# CCRF-CEM leukemia = tested on: CCRF-CEM leukemia
# NCI-H460 lung = tested on: NCI-H460 lung
# SF-268 CNS = tested on: SF-268 CNS
# OVCAR-8 ovarian = tested on: OVCAR-8 ovarian
# SR leukemia = tested on: SR leukemia
# BT-549 breast = tested on: BT-549 breast
SMILES,TGI (UO-31 renal) [µM],TGI (NCI/ADR-RES ovarian) [µM],TGI (OVCAR-3 ovarian) [µM],TGI (SK-OV-3 ovarian) [µM],TGI (NCI-H23 lung) [µM],TGI (SF-295 CNS) [µM],TGI (COLO 205 colon) [µM],TGI (786-0 renal) [µM],TGI (MDA-MB-231 breast) [µM],TGI (MOLT-4 leukemia) [µM],TGI (SK-MEL-5 melanoma) [µM],TGI (SNB-75 CNS) [µM],TGI (CCRF-CEM leukemia) [µM],TGI (NCI-H460 lung) [µM],TGI (SF-268 CNS) [µM],TGI (OVCAR-8 ovarian) [µM],TGI (SR leukemia) [µM],TGI (BT-549 breast) [µM]
COc1ccc(OC)c2c1C(=O)C(Cl)=C(Cl)C2=O,6.66,5.74,7.85,67.4,19.2,38.6,3.21,10.5,6.57,8.87,14.1,29.1,> 100,44.3,27,18.3,> 88,–
CNNC1=NS(=O)(=O)c2cc(C(=O)OC)c(Cl)cc2S1,–,> 10,> 10,> 10,> 10,> 10,> 10,> 10,> 10,> 10,> 10,> 10,> 10,> 10,> 10,> 10,–,> 10
S=c1scc(-c2ccc(Cl)cc2)n1OC1CCCC1,> 100,> 100,74.9,> 100,> 100,> 100,26.5,> 100,> 100,67.7,24.4,> 100,–,> 100,> 100,> 100,–,94.7
COC(=O)c1ccccc1C1CN=NC12Cc1c(C)c3c(c(C)c1C2=O)CCC3 (stereo unspecified),> 100,> 100,> 100,> 100,> 100,> 100,> 100,> 100,> 100,> 100,> 100,> 100,> 100,> 100,> 100,> 100,–,> 100
CCCCCCCCCCCCCCCCCCNc1ccn(C2OC(COP(=O)(O)OCCCCCCCCCCCCCCCC)C(O)C2O)c(=O)n1 (stereo unspecified),> 100,> 100,> 100,> 100,> 100,> 100,> 100,> 100,> 100,> 100,–,> 100,> 100,–,> 100,> 100,> 100,–
COc1cccc(N2CCc3c(C)c(C#N)c4nc5ccccc5n4c32)c1,> 100,> 100,> 100,> 100,> 100,> 100,> 100,> 100,> 100,–,> 100,> 100,> 100,> 100,> 100,> 100,–,> 100
Cn1cc(C=C(C#N)C#N)c(=O)n(C)c1=O,> 100,> 100,> 100,> 100,> 100,> 100,> 100,> 100,> 100,> 100,> 100,> 100,–,> 100,> 100,> 100,–,> 100
O=c1cc2oc3ccc4ccccc4c3cc-2c(=O)[nH]1,23.5,37.1,24.4,34.5,4.78,37.1,30,26.7,–,8.02,29.3,–,2.6,53.1,28.4,4.53,11,11.2
CC1(C)C2CCC1(C)C(NC(=O)CCN1CCOCC1)C2 (stereo unspecified),> 100,–,> 100,> 100,> 100,> 100,> 100,> 100,> 100,> 100,> 100,> 100,> 100,> 100,> 100,> 100,> 100,> 100
Clc1ccc(OCc2nnc(CCCCCCCCc3nnc(COc4ccc(Cl)cc4)o3)o2)cc1,> 100,> 100,> 100,> 100,> 100,> 100,> 100,> 100,> 100,> 100,> 100,> 100,–,> 100,> 100,–,–,> 100
O=C1C=CC(=O)c2c(O)c(Nc3ccc(OC(F)(F)F)cc3)c(Cl)c(O)c21,5.58,4.57,1.45,3.19,0.708,4.62,2.84,1.26,1.41,–,5.15,1.79,4.32,3.6,1.49,8.25,–,3.12
C[C@@H]1O[C@@H]2OCC[C@@H]2C2=C1C(=O)c1ccccc1C2=O,22.8,14,10.2,89.9,23.4,33,51.3,29.1,> 100,> 100,19.2,41.9,33.8,31.9,16.9,> 100,28.1,–
CCCC/C=C1\CCC(CN2CCOCC2)C1=O (stereo unspecified),11.6,–,19.3,31,12.2,29.8,9.49,4.25,14.5,10.7,26.9,20.7,3.35,38.2,36.3,22.5,5.23,9.47
O=c1[nH]ncc2[nH]c3c(c12)CCCc1ccccc1-3,> 100,> 100,> 100,> 100,> 100,> 100,53.2,> 100,–,> 100,> 100,–,> 100,> 100,> 100,> 100,–,> 100
